Reference: article PMC11901902, “Design, Synthesis, and Cytotoxicity Evaluation of Novel Indolin-2-One Based Molecules on Hepatocellular Carcinoma HepG2 Cells as Protein Kinase Inhibitors” (Molecules, 2025)

Experiments:
caspase 3/7 = test: ELISA of caspase 3/7 in treated HepG-2 cells; type: cell-based, human; details: for increase of caspase 3/7 levels compared with untreated cells: HepG-2, compound at its IC50, 24 h; for Concentration of caspases 3/7: HepG-2, compound at its IC50, ± S.E.M, control 11.90±1.71
Protocol: (§1) HepG2 cells were cultured in RPMI 10% + 5%FBS penicillin/streptomycin and were incubated at a humidity 5% CO2 and maintained at 37 °C. […] HepG2 cells were cultured as a monolayer in T-25 flasks and were seeded to attain 30% confluency prior to treatment. The main 100 mM stock dissolved in DMSO was diluted with the cell culture medium in order to reach the previously determined IC50 concentration of each of the three preparations. After that, HepG2 cells were collected via trypsinization and centrifuged at 10,000 rpm. The pellet was then rinsed with PBS and lysed in RIPA lysis buffer at 4 °C for 45 min, then centrifuged at 14,000 rpm for 20 min to remove the cellular debris. Lysates were then collected and stored at […] for protein determination. The levels of p53, p21, Fas-L, Bax, Bcl-2, and caspase 3/7 were assessed using the human P53 ELISA kit (Catalog No. ABIN6962151), P21 ELISA kit (Catalog No. ABIN6966175), Human Apoptosis Ligand (FAS-L), Bax ELISA kit, Human Factor-Related. Bcl-2 ELISA kit ELISA kit, and caspase3/7 ELISA kit (Elabscience Biotechnology Co., Wuhan, Hubei, China). The procedure of the used kits was done according to the manufacturer’s instructions. Briefly, equal amounts of cell lysates were loaded and then probed with specific antibodies. The samples were measured at 450 nm in ROBONEK P2000 ELISA reader. The analysis was confirmed with three different sets of extracts. All experiments were done in triplicate (Tables S6–S9).

VEGFR-2 = target: T1, VEGFR-2 (Homo sapiens, UniProt P35968); test: Kinase-Glo Plus luminescence kinase inhibition assay, VEGFR-2; type: biochemical; details: 10 µM ATP, 30 °C, 40 min; mean ± SEM
T1 construct: purchased BPS Bioscience 40301
Protocol: (§2) The enzyme inhibition assay for the tested molecules was performed at BPS Bioscience Corporation, San Diego, CA, USA. The following materials served as the enzyme sources, Poly (Glu, Tyr) sodium salt (4:1, Glu:Tyr) (Sigma#P7244) served as the standardized substrate, and the Kinase-Glo Plus Luminescence kinase assay kit (Promega # V3772) was used. […] Glo Plus luminescence kinase assay kits. The assays were performed using Kinase-Glo Plus luminescence (Promega Corporation, Madison, WI, USA).
(§3) The tested molecules 9, 20, and indurbin were diluted to 100 µL in DMSO (10%), and 5 µL of the solution was added to a 50-µL enzyme reaction until the final concentration of DMSO was 1% in all of reactions. The enzymatic reactions were conducted at 30 °C for 40 min. The reaction mixture contained enzyme substrate and respective kinases. After the enzymatic reaction, 50 µL of enzyme-Glo Plus luminescence […] assay solution (Promega) was added to each reaction, and the plate was incubated for 5 min at room temperature. The luminescence signal was measured using a BioTek Synergy 2 microplate reader. The luminescence data were analyzed using the computer software GraphPad Prism. The difference between luminescence intensities in the absence of enzyme (Lut) and in the presence of enzyme (Luc) was defined as 100% activity (Lut − Luc). […] The IC50 value was determined using GraphPad Prism software. […]
(§4) Glo Plus luminescence kinase assay kits were used in these assays. […] The assay measures kinase activity by quantitating the amount of ATP remaining in the solution following kinase reaction. […] After the enzymatic reaction, 50 µL of Kinase-Glo Plus Luminescence kinase assay solution (Promega) was added to each reaction, and the plate was incubated for 5 min at room temperature. The luminescence signal was measured using a BioTek Synergy 2 microplate reader. […] The luminescence data were analyzed using the Graphpad Prism software.

p21 = test: ELISA of p21 in treated HepG-2 cells; type: cell-based, human; details: HepG-2, compound at its IC50, 24 h
Protocol: as §1, with “The analysis was confirmed with three different sets of extracts. All experiments were done in triplicate (Tables S6–S9).” left out

HepG-2 cells = test: DNA flow cytometry cell cycle analysis; type: cell-based, human; details: HepG-2, compound at its IC50, 24 h
Protocol: The HepG-2 cells were then collected by trypsinization, washed with PBS, and fixed. After that, treated cells were stained using the Cycle Test Plus DNA Reagent Kit (BD Biosciences, San Jose, CA, USA) according to the manufacturer’s instructions. The percentage of cell cycle distribution was calculated using CELLQUEST software 5.1 (Becton Dickinson Immuno-cytometry Systems, San Jose, CA, USA) (Table S4).

Bax = test: ELISA of Bax in treated HepG-2 cells; type: cell-based, human; details: HepG-2, compound at its IC50; ± S.E.M; control 18.93±11.71
Protocol: as §1, with “The analysis was confirmed with three different sets of extracts. All experiments were done in triplicate (Tables S6–S9).” left out

CDK-4 = target: T2, CDK-4 (Homo sapiens, UniProt P11802); test: Kinase-Glo Plus luminescence kinase inhibition assay, CDK-4; type: biochemical; details: 10 µM ATP, 30 °C, 40 min; mean ± SEM
T2 construct: purchased BPS Bioscience 79674
Protocol: as §2, §3, §4

p53 = test: ELISA of p53 in treated HepG-2 cells; type: cell-based, human; details: for upregulation of p53 expression compared to untreated cells: HepG-2, compound at its IC50, 24 h; for Concentration of p53: HepG-2, compound at its IC50, ± S.E.M, control 48.29±3.87
Protocol: as §1

HepG2 cells = test: Annexin-V-FITC/PI apoptosis assay; type: cell-based, human; details: HepG2, compound at its IC50, 24 h
Protocol: Then, the cells were washed with PBS and detached by trypsin. The detached cells were collected into a 15-mL centrifuged tube, washed with ice-cold PBS twice, and centrifuged at 1200 rpm for 5 min. A volume of 0.1 mL binding buffer was added to the treated HepG-2 cells, followed by adding 5 μL of annexin V-FITC and 5 μL of 50 μg/mL PI staining reagents. After mixing and reacting at 25 °C for 15 min in the dark, the apoptotic cell percentages were analyzed by a flow cytometer [FACS Calibur flow cytometer (BD Biosciences)] (Table S5).

Bcl-2 = test: ELISA of Bcl-2 in treated HepG-2 cells; type: cell-based, human; details: HepG-2, compound at its IC50; ± S.E.M; control 360.90±31.71
Protocol: as §1, with “The analysis was confirmed with three different sets of extracts. All experiments were done in triplicate (Tables S6–S9).” left out

EGFR = target: T3, EGFR (Homo sapiens, UniProt P00533); test: Kinase-Glo Plus luminescence kinase inhibition assay, EGFR; type: biochemical; details: 10 µM ATP, 30 °C, 40 min; mean ± SEM
T3 construct: purchased BPS Bioscience 40721
Protocol: as §2, §3, §4

T2 sequence (P11802 whole entry): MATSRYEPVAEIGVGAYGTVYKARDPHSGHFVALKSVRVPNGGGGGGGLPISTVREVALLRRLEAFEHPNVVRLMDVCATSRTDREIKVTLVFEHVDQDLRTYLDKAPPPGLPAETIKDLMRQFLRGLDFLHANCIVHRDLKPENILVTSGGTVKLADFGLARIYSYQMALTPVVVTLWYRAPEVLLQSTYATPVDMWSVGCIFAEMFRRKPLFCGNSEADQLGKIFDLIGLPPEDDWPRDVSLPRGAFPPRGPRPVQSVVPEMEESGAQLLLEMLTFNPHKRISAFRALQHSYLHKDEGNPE
T2 sequence (P30281 whole entry partner): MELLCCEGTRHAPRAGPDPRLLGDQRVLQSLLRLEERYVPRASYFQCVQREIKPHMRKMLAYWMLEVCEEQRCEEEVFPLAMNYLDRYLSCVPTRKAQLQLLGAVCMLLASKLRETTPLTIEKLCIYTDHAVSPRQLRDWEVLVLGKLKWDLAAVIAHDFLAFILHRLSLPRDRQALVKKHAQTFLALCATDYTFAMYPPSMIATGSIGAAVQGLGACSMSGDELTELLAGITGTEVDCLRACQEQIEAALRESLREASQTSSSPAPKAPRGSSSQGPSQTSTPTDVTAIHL
T1 sequence (P35968 20-1356): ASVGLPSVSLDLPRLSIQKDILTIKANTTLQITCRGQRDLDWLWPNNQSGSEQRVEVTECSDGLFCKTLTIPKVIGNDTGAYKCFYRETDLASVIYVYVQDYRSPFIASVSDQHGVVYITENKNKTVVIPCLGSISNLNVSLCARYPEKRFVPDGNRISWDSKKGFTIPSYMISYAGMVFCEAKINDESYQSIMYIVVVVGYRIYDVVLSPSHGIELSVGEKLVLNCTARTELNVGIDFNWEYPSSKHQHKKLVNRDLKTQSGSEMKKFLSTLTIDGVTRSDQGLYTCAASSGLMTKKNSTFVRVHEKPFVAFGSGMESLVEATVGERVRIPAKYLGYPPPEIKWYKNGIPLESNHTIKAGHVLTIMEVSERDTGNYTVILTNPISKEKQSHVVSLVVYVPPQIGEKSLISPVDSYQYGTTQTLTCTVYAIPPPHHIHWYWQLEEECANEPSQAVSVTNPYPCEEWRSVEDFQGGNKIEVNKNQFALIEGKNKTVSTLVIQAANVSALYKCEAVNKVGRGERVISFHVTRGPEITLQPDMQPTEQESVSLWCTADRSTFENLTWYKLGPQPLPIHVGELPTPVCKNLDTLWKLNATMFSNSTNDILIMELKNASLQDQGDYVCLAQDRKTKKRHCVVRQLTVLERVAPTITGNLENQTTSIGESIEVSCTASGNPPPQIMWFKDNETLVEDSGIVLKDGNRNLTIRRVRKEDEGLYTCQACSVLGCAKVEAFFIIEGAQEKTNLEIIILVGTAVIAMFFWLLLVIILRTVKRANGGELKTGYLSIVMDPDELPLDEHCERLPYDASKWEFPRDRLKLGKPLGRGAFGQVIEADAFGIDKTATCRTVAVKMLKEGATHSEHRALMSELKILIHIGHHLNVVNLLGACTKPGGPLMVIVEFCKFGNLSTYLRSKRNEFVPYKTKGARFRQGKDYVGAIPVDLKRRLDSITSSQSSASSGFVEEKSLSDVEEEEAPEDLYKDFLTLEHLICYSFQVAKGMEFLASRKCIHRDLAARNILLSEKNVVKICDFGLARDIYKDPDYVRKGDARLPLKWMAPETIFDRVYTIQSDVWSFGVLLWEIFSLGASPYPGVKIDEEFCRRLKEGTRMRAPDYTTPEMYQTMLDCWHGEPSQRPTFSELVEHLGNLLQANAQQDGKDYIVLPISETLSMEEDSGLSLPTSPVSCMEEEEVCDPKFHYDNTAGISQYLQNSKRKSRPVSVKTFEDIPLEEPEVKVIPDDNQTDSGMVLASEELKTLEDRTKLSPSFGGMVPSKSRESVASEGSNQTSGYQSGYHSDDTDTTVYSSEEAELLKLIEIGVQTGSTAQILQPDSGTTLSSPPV
T3 sequence (P00533 25-1210): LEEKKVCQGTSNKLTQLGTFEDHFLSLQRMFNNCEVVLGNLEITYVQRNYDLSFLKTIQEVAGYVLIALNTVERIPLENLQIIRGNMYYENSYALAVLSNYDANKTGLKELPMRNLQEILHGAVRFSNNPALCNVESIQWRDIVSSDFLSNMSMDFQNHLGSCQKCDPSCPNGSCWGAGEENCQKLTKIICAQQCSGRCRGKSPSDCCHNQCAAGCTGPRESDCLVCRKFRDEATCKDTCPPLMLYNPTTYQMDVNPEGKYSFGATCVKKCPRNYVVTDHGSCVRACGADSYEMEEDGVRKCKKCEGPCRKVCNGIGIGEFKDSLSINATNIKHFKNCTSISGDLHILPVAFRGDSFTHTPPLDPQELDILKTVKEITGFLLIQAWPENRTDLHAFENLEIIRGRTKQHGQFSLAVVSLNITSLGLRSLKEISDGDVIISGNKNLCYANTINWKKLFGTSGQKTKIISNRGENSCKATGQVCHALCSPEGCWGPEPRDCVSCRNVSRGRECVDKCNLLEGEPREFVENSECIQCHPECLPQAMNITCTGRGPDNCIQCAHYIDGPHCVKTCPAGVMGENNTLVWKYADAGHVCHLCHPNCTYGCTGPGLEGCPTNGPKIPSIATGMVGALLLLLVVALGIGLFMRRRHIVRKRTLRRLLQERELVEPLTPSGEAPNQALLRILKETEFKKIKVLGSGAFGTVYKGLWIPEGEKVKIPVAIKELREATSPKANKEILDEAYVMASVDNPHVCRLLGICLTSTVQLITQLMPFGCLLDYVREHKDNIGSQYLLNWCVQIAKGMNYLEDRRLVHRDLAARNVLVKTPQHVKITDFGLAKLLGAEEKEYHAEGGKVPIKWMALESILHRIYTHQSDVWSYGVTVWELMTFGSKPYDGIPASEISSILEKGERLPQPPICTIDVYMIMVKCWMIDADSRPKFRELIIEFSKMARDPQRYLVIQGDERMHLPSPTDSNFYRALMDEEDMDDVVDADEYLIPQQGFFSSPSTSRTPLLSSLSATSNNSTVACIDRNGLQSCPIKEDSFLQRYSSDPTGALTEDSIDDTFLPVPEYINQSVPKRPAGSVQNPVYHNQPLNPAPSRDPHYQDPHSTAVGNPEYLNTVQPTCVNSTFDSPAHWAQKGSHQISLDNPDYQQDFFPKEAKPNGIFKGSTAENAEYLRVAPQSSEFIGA

Compound: O=C1Nc2ccc(Cl)cc2C1=Nc1ccc2nc[nH]c(=O)c2c1 [Compound 9, 6-(5-Chloro-2-oxo-1,2-dihydro-indol-3-ylideneamino)-3H-quinazolin-4-one]
- increase of caspase 3/7 levels compared with untreated cells (caspase 3/7): 5.3 fold
- Concentration of caspases 3/7 (caspase 3/7): 62.13 ± 5.27 pg/mL
- IC50 (VEGFR-2): 56.7 ± 4.3 nM
- upregulation of p21 expression compared to untreated cells (p21): 4.52 fold
- Cell cycle distribution (%) G0-G1 (HepG-2 cells): 67.16%
- Cell cycle distribution (%) G2-M (HepG-2 cells): 20.75%
- Cell cycle distribution (%) S (HepG-2 cells): 32.03%
- Cell cycle distribution (%) sub-G0/G1 (HepG-2 cells): 13.82%
- Concentration of Bax (Bax): 88.12 ± 5.27 pg/mL
- IC50 (CDK-4): 36.4 ± 4.52 nM
- upregulation of p53 expression compared to untreated cells (p53): 6.7 fold
- Concentration of p53 (p53): 325.11 ± 29.55 pg/mL
- Apoptosis Early (HepG2 cells): 5.05%
- Apoptosis Late (HepG2 cells): 3.72%
- Apoptosis Total (HepG2 cells): 8.77%
- Necrosis (HepG2 cells): 2.69%
- increase of cell population at late apoptosis compared with untreated control (HepG2 cells): around 11 fold
- increase of cells in early apoptotic stage compared with untreated control (HepG2 cells): around 6 fold
- Concentration of Bcl-2 (Bcl-2): 90.15 ± 8.27 pg/mL
- IC50 (EGFR): 87.5 ± 6.71 nM

Compound: O=C1Nc2ccc(Cl)cc2C1=Nc1ccc(-c2nc3ccccc3c(=O)[nH]2)cc1 [Compound 20, 2-[4-(5-Chloro-2-oxo-1,2-dihydro-indol-3-ylideneamino)-phenyl]-3H-quinazolin-4-one]
- increase of caspase 3/7 levels compared with untreated cells (caspase 3/7): 3.2 fold
- Concentration of caspases 3/7 (caspase 3/7): 37.32 ± 4.82 pg/mL
- IC50 (VEGFR-2): 14.3 ± 2.7 nM
- upregulation of p21 expression compared to untreated cells (p21): 3.9 fold
- Cell cycle distribution (%) G0-G1 (HepG-2 cells): 60.3%
- Cell cycle distribution (%) G2-M (HepG-2 cells): 2.86%
- Cell cycle distribution (%) S (HepG-2 cells): 16.27%
- Cell cycle distribution (%) sub-G0/G1 (HepG-2 cells): 10.59%
- Concentration of Bax (Bax): 108.32 ± 9.82 pg/mL
- IC50 (CDK-4): 244 ± 12.2 nM
- upregulation of p53 expression compared to untreated cells (p53): 2.65 fold
- Concentration of p53 (p53): 127.43 ± 9.43 pg/mL
- Apoptosis Early (HepG2 cells): 4.91%
- Apoptosis Late (HepG2 cells): 6.75%
- Apoptosis Total (HepG2 cells): 11.66%
- Necrosis (HepG2 cells): 1.91%
- increase of cell population at late apoptosis compared with untreated control (HepG2 cells): ~21 fold
- increase of cells in early apoptotic stage compared with untreated control (HepG2 cells): around 6 fold
- Concentration of Bcl-2 (Bcl-2): 160.32 ± 10.82 pg/mL
- IC50 (EGFR): 32.7 ± 1.61 nM
